Results as given in the supplement of paper PMC10307832.

Legend:
Assay in all cases: relative viability (nuclei count vs DMSO), 5 days (fraction); higher = more cells survive
[1] = compound: CC(C)C[C@H](NC(=O)[C@H](Cc1ccccc1)NC(=O)c1cnccn1)B(O)O [Bortezomib] + O=C(CCCCCCC(=O)Nc1ccccc1)NO [Vorinostat] (partner 1 µM)
Outline: (§1)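 After 5 days of treatment, lung cancer cells in 1536-well plates were fixed and stained in a single step (final 0.05% Triton X-100, 1% formaldehyde, 1 ug/ml Hoechst) and their nuclei counted on 4× images. Treatment had been applied by pin tool the day after seeding as one drug alone or as a fixed anchor-drug dose with five library-drug doses (not always all listed) in √10 steps. Relative viability is the nuclei count of treated wells divided by that of vehicle wells, and values are medians of duplicate plates.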

[2] = compound: CC(C)C[C@H](NC(=O)[C@H](Cc1ccccc1)NC(=O)c1cnccn1)B(O)O [Bortezomib] + CC(=O)c1c(C)c2cnc(Nc3ccc(N4CCNCC4)cn3)nc2n(C2CCCC2)c1=O [Palbociclib] (partner 0.5 µM)
Outline: as §1

[3] = compound: COC1=CC(c2cc3ccccc3[nH]2)=N/C1=C\c1[nH]c(C)cc1C [Obatoclax] + C[C@]1(O)C[C@@H](c2nc(-c3ccc4ccc(-c5ccccc5)nc4c3)c3c(N)nccn32)C1 [Linsitinib] (partner 1 µM)
Outline: as §1

[4] = compound: CC1=CC(=NN1)NC2=CC(=NC(=N2)/C=C/C3=CC=CC=C3)N4CCN(CC4)C + COc1cccc2cc(-c3nc([C@H]4CC[C@H](C(=O)O)CC4)n4ncnc(N)c34)[nH]c12 [OSI-027] (partner 0.5 µM)
Outline: as §1

Cell Line | relative viability ([1]; first compound 0.0002 µM) | relative viability ([1]; first compound 0.000632 µM) | relative viability ([1]; first compound 0.002 µM) | relative viability ([1]; first compound 0.006325 µM) | relative viability ([1]; first compound 0.02 µM) | relative viability ([2]; first compound 0.0002 µM) | relative viability ([2]; first compound 0.000632 µM) | relative viability ([2]; first compound 0.002 µM) | relative viability ([2]; first compound 0.006325 µM) | relative viability ([2]; first compound 0.02 µM) | relative viability ([3]; first compound 0.01 µM) | relative viability ([3]; first compound 0.03162 µM) | relative viability ([3]; first compound 0.1 µM) | relative viability ([3]; first compound 0.3162 µM) | relative viability ([3]; first compound 1 µM) | relative viability ([4]; first compound 0.08 µM) | relative viability ([4]; first compound 0.253 µM) | relative viability ([4]; first compound 0.8 µM) | relative viability ([4]; first compound 2.53 µM) | relative viability ([4]; first compound 8 µM)
NCI-H1755 | 0.813 | 0.644 | 0.748 | 0.245 | 0.208 | 0.426 | 0.438 | 0.452 | 0.263 | 0.248 | 0.986 | 0.996 | 0.96 | 0.991 | 1.03 | 0.724 | 0.715 | 0.648 | 0.363 | 0.209
NCI-H1793 | 0.689 | – | 0.682 | 0.381 | 0.125 | 0.336 | – | 0.375 | 0.205 | 0.143 | 0.802 | 0.662 | 0.935 | 0.77 | 0.78 | 0.301 | 0.204 | 0.26 | 0.107 | 0.0726
NCI-H1915 | 0.514 | 0.531 | 0.555 | 0.286 | 0.0313 | 0.476 | 0.519 | 0.54 | 0.118 | 0.0404 | 1.07 | 1.06 | 1.09 | 1.07 | 1.06 | 0.635 | 0.496 | 0.557 | 0.371 | 0.271
NCI-H1944 | 0.563 | 0.546 | 0.633 | 0.333 | 0.148 | 0.315 | 0.309 | 0.336 | 0.21 | 0.15 | 1.1 | 1.2 | 1.27 | 1.19 | 1.3 | 0.437 | 0.4 | 0.394 | 0.272 | 0.145
NCI-H1975 | 0.661 | 0.655 | 0.154 | 0.123 | 0.135 | 0.663 | 0.517 | 0.138 | 0.1 | 0.106 | 0.988 | 0.989 | 0.99 | 0.939 | 0.971 | 0.676 | 0.746 | 0.629 | 0.15 | 0.0749
NCI-H1993 | 0.894 | 0.987 | 0.605 | 0.258 | 0.266 | 0.569 | 0.737 | 0.666 | 0.369 | 0.359 | 0.754 | 0.772 | 0.712 | 0.737 | 0.623 | 0.514 | 0.484 | 0.478 | 0.457 | 0.414
NCI-H2009 | 0.745 | 0.735 | 0.703 | 0.0608 | 0.0437 | 0.241 | 0.205 | 0.176 | 0.0661 | 0.0466 | 1.12 | 1.2 | 1.19 | 1.02 | 0.262 | 0.615 | 0.672 | 0.638 | 0.227 | 0.111
NCI-H2023 | 0.813 | 0.423 | 0.618 | 0.078 | 0.0655 | 0.303 | 0.345 | 0.332 | 0.0803 | 0.0773 | 0.624 | 0.648 | 0.635 | 0.608 | 0.279 | 0.374 | 0.45 | 0.341 | 0.0653 | 0.041
